Experimental data taken from paper PMC8506144 (Phytochemistry, 2021).
Like-named read-outs stand apart in the source and are kept apart here.

Experiments:
SARS-CoV-2 PLpro [1] = target: T1, SARS-CoV-2 PLpro (Severe acute respiratory syndrome coronavirus 2, UniProt P0DTD1); test: biochemical; type: biochemical
SARS-CoV-2 PLpro [2] = target: T1, SARS-CoV-2 PLpro; test: Pro-ISG15 cleavage assay; type: biochemical; details: for inhibition at 20 µM / inhibition at 10 µM: read-out: Inhibition rate of PLpro-mediated deISGylation; for Inhibition rate of PLpro-mediated deISGylation: 20 μM compound, 50 nM PLpro, 350 nM pro-ISG15, 10 min, 37 °C
[3] = IC50 (50% inhibition of PLpro anti-proteolytic activity), 50 nM PLpro, 50 μM Z-RLRGG-AMC, 10 mM DTT, pH 8.0, 37 °C, mean ± SD

Row | Structure (SMILES) | IC50 (SARS-CoV-2 PLpro [1]; read-out: IC50 (50% inhibition of PLpro anti-proteolytic activity), pH 8) [µM] | inhibition at 20 µM (SARS-CoV-2 PLpro [2]) [%] | Ki (SARS-CoV-2 PLpro [1]) [µM] | IC50 (SARS-CoV-2 PLpro [1]; [3]) [µM] | Inhibition mode (Dixon plot) (SARS-CoV-2 PLpro [1]) | inhibition at 10 µM (SARS-CoV-2 PLpro [2]) [%] | Inhibition rate of PLpro-mediated deISGylation (SARS-CoV-2 PLpro [2]) | Fold more potent anti-proteolytic activity than di-methylated counterpart 8 (SARS-CoV-2 PLpro [1]; ratio of IC50 values, 7 vs 8) [fold]
1 | CC(C)=CCc1cc2c(cc1O)oc(=O)c1c3ccc(O)cc3oc21 [Psoralidin, reference compound] | 27.8 ± 2.2 |  |  |  |  |  |  | 
2 | O=c1cc(-c2ccc(O)c(-c3c(O)cc(O)c4c(=O)cc(-c5ccc(O)cc5)oc34)c2)oc2cc(O)cc(O)c12 [Compound 1, amentoflavone] |  | 48.1 | 9.1 ± 0.7 | 13 ± 1.2 |  |  |  | 
3 | O=C1c2c(O)cc(O)cc2O[C@H](c2ccc(O)cc2)[C@H]1c1c(O)cc(O)c2c(=O)cc(-c3ccc(O)c(O)c3)oc12 [Compound 6, morelloflavone] |  | 32.3 to 34.1 | 30.7 ± 2.9 | 36.4 ± 4.8 | non-competitive inhibition |  |  | 
4 | COc1ccc(-c2cc(=O)c3c(O)cc(O)c(-c4cc(-c5cc(=O)c6c(O)cc(O)cc6o5)ccc4O)c3o2)cc1 [Compound 2, podocarpusflavone A] |  | 64.9 to 74.8 | 36.5 ± 4.2 | 43.2 ± 2.9 |  | 53.2 to 71.1 |  | 
5 | COc1ccc(-c2cc(=O)c3c(O)cc(O)c(-c4cc(-c5cc(=O)c6c(O)cc(O)cc6o5)ccc4OC)c3o2)cc1 [Compound 4, isoginkgetin] |  |  | 26.5 ± 2.8 | 31.2 ± 3.4 |  | 53.2 to 71.1 | near complete inhibition | 
6 | COc1cc(O)c2c(=O)cc(-c3ccc(OC)c(-c4c(O)cc(O)c5c(=O)cc(-c6ccc(O)cc6)oc45)c3)oc2c1 [Compound 3, ginkgetin] |  |  | 17.7 ± 1.1 | 29.8 ± 1.5 |  | 53.2 to 71.1 | near complete inhibition | 
7 | O=c1cc(-c2ccc(Oc3c(O)cc4oc(-c5ccc(O)cc5)cc(=O)c4c3O)cc2)oc2cc(O)cc(O)c12 [Compound 7, hinokiflavone] |  |  | 7.8 ± 0.5 | 9.5 ± 1.2 |  | 65.6 to 98 | near complete inhibition | 2.8
8 | COc1ccc(-c2cc(=O)c3c(O)cc(O)cc3o2)cc1 [Acacetin, acacetin, reference compound] |  |  |  | 91.2 ± 11.3 |  |  |  | 
9 | O=c1cc(-c2ccc(O)cc2)oc2cc(O)cc(O)c12 [Apigenin, apigenin, reference compound] |  |  |  | 75.7 ± 6.4 |  |  |  | 
